Some results are limits rather than exact numbers.

This assay relates to HER2. In words: HER2 whole cell kinase ELISA (second HER2 column of Table 1). It counts as cell-based. The conditions noted are these: cell line not given. An excerpt:
The following examples illustrates the ability of the exemplary compounds to inhibit receptor tyrosine kinases, such as HER2 and/or EGFR. The following target cells were used for cellular kinase assays: NIH3T3 clone C7 (Honegger et al., supra) engineered to over-express human EGF receptor; NIH3T3 cells engineered to over-express a chimeric receptor containing the EGFR extracellular domain and the HER2 intracellular kinase domain; the human mammary carcinoma line BT474 (ATCC HTB2) expressing HER2; and the human glioblastoma line U1242 that expresses PDGFR-beta. Growth assays were carried out using human mammary epithelial SKBR3 (ATCC HTB30) cells (SKBR3 cells over-express HER2), SKOV3 (AT(D(D HTB77) human ovarian cancer cell line (SKOV3 cells also over-express HER2), A431 cells (A431 cells over-express EGFR) MCF7 human breast carcinoma cells, MCF7 cells overexpressing the HER2 kinase (MCF7-HER2), NIH3T3 cells, and NIH3T3 cells overexpressing the HER2 kinase (3T3-HER2. EGFR-HER2 Chimeric Recetor HER2 kinase activity (EGFR-3T3) in whole cells was measured as described below: HER2-ELISA HER2-BT474 assays measuring whole cell HER2 activity was carried out as described below: 1. The cell line used in this assay is BT-474 (ATCC HBT20), a human breast tumor cell line which expresses high levels of HER2 kinase. 2. BT-474 is grown in an incubator with 5% CO2 at 37° C. The growth media is RPMI+10% FBS+GMS-G (Gibco supplement)+Glutamine. 3. A monoclonal anti-HER2 antibody is used in ELISA. (a) Grow BT474 cells in tissue culture dishes (10 cm, Corning 25020-100) to 80-90% confluence and collect using Trypsin-EDTA (0.25%, GIBCO). (b) Resuspend the cells in fresh medium and transfer to 96-well tissue culture plates (Corning, 25806-96) at about 25,000-50,000 cells/well (100 μl/well). Incubate the cells in 5% CO2 at 37° C. overnight. (a) Coat the ELISA plate (Corning 25805-96) with anti HER2 antibody at 0.5 μg/well in 150 μl PBS overnight at 4.sunburst. C., and seal with parafilm. The antibody coated plates can be used up to 2 weeks, when stored at 4° C. (b) On the day of use, remove the coating solution, replace with 200 μl of Blocking Buffer, shake the plate, and then remove the blocking buffer and wash the plate just before adding lysate. (a) TBST the drugs in serum-free condition. Before adding drugs, the old media (b) Dilute drug stock (in 100% DMSO) 1:10 with RPMI, and transfer 10 μl/well of this solution to the cells to achieve a final drug DMSO concentration at 1%. Incubate the cells in 5% CO2 at 37° C. (d) After drug preincubation for two hours remove all the solution from the plate, transfer HNTG* 100 μl/well to the cells, and shake for 10 minutes. (e) Use a 12-channel pipette to scrape the cells from the plate, and homogenize the lysate by repeat aspiration and dispensing. Transfer all the lysate to the ELISA plate and shake for 1 hour. (f) Remove the lysate, wash the plate, add anti-pTyr (1:3,000 with TBST) 100 μl/well, and shake for 30 minutes. (g) Remove anti-pTyr, wash the plate, add goat anti-rabbit IgG conjugated antibody (1:5,000 with TBST) 100 μl/well, and shake for 30 minutes. (h) Remove anti-rabbit IgG antibody, wash the plate, and add fresh ABTS/H2 O2 (1.2 μl H2 O2 to 10 ml ABTS) 100 l/we1l to the plate to start color development, which usually takes 20 minutes. (i) Measure OD 410 nm, Dynatec MR5000.

For `CCOC(=O)c1cnc2c(F)ccc(F)c2c1Sc1cccc(C(F)(F)F)c1` [Compound A713, 3-Ethoxycarbonyl-5,8-difluoro-4-(3-trifluoromethylphenylmercapto)quinoline], the IC50 turned out to be 36 µM.
With `CCOC(=O)c1cnc2ccc(C(F)(F)F)cc2c1Nc1cccc(Br)c1` [Compound A716, 4-(3-Bromophenylamino)-3-ethoxycarbonyl-6-trifluoromethylquinoline] the figure was greater than 100 µM; with `CCOC(=O)c1cnc2ccc(C(F)(F)F)cc2c1NCc1ccccc1C(F)(F)F` [Compound A717, 3-Ethoxycarbonyl-4-(2-trifluoromethylbenzylamino)-6-trifluoromethylquinoline], greater than 100 µM; with `CCOC(=O)c1cnc2ccc(C(F)(F)F)cc2c1NCc1cccc(C(F)(F)F)c1` [Compound A718, 3-Ethoxycarbonyl-4-(3-trifluoromethylbenzylamino)-6-trifluoromethylquinoline], greater than 50 µM.
With `CCOC(=O)c1cnc2ccc(C(F)(F)F)cc2c1NCc1ccc(C(F)(F)F)cc1` [Compound A719, 3-Ethoxycarbonyl-4-(4-trifluoromethylbenzylamino)-6-trifluoromethylquinoline] the figure was greater than 100 µM; with `CCOC(=O)c1cnc2ccc(C(F)(F)F)cc2c1Nc1ccccc1C(F)(F)F` [Compound A720, 3-Ethoxycarbonyl-4-(2-trifluoromethylphenylamino)-6-trifluoromethylquinoline], greater than 100 µM; with `CCOC(=O)c1cnc2ccc(C(F)(F)F)cc2c1Nc1cccc(C(F)(F)F)c1` [Compound A721, 3-Ethoxycarbonyl-4-(3-trifluoromethylphenylamino)-6-trifluoromethylquinoline], greater than 100 µM.
Regarding `CCOC(=O)c1cnc2ccc(C(F)(F)F)cc2c1Nc1ccc(C(F)(F)F)cc1` [Compound A722, 3-Ethoxycarbonyl-4-(4-trifluoromethylphenylamino)-6-trifluoromethylquinoline], the IC50 was greater than 100 µM.
With `CCOC(=O)c1cnc2ccc(C(F)(F)F)cc2c1Nc1ccccc1C#N` [Compound A723, 4-(2-Cyanophenylamino)-3-ethoxycarbonyl-6-trifluoromethylquinoline] the figure was greater than 10 µM; with `CCOC(=O)c1cnc2ccc(C(F)(F)F)cc2c1Nc1ccc(C#N)cc1` [Compound A725, 4-(4-Cyanophenylamino)-3-ethoxycarbonyl-6-trifluoromethylquinoline], greater than 100 µM.
With `CCOC(=O)c1cnc2ccc(C(F)(F)F)cc2c1Nc1ccc(OC)c(OC)c1` [Compound A726, 3-Ethoxycarbonyl-4-(3,4-dimethoxyphenylamino)-6-trifluoromethylquinoline] the figure was greater than 100 µM; with `CCOC(=O)c1cnc2ccc(C(F)(F)F)cc2c1Nc1ccc(Br)cc1` [Compound A727, 4-(4-Bromophenylamino)-3-ethoxycarbonyl-6-trifluoromethylquinoline], greater than 10 µM; with `CCOC(=O)c1cnc2ccc(C(F)(F)F)cc2c1Nc1cccc(Cl)c1` [Compound A728, 4-(3-Chlorophenylamino)-3-ethoxycarbonyl-6-trifluoromethylquinoline], greater than 75 µM.
In the case of `CCOC(=O)c1cnc2ccc(C(F)(F)F)cc2c1Nc1ccc(Cl)cc1` [Compound A729, 4-(4-Chlorophenylamino)-3-ethoxycarbonyl-6-trifluoromethylquinoline], the IC50 was greater than 100 µM.

Usually IC50 stands for the concentration that gives 50% inhibition. Lower therefore signals higher potency.

(Values after patent US5650415A, “Quinoline compounds” (Sugen, Inc., priority 1995, dated 1997).)
